Reference: patent US9470680B2, “Fluorescence-based approach to monitor release factor-catalyzed termination of protein synthesis” (THE TRUSTEES OF COLUMBIA UNIVERSITY IN THE CITY OF NEW YORK, priority 2011, dated 2016)

Assays:
[1] = system: polypeptide release at a stop codon; conditions: cited from earlier work
[2] = system: RC2 (release complex with L1(Cy5) ribosomes and (Cy3)tRNAPhe); assay: L1-tRNA smFRET monitoring the GS1/GS2 equilibrium; format: biochemical, Escherichia coli
Protocol: RCs assembled on a biotinylated mRNA were immobilized on the surface of a streptavidin-derivatized quartz flow cell and visualized with single-molecule resolution using a total internal reflection fluorescence microscope. RC surface immobilization strategy and lab-built total internal reflection fluorescence (TIRF) microscope are described in FIG. 10. Experiments were performed at room temperature in Tris-polymix buffer at 15 mM Mg(OAc)2, supplemented with an oxygen-scavenging system (300 μg ml^−1 glucose oxidase, 40 μg ml^−1 catalase and 1% (w/v)(β-D-glucose). In addition, 1 mM 1,3,5,7-cyclooctatetraene (Aldrich) and p-nitrobenzyl alcohol (Fluka) was added to all buffers in order to quench a long-lived, non-fluorescent triplet state sampled by the Cy5 fluorophore. The oxygen-scavenging and triplet state quencher systems have no effect on the in vitro translation system used herein (Gonzalez et al. 2007; Blanchard et al. 2004b).
(§1) Quartz microscope slides were cleaned and subsequently derivatized with a mixture of polyethyleneglycol (PEG) and PEG-biotin in order to passivate the surface (Blanchard et al. 2004b). Just prior to data acquisition, slides were treated with streptavidin, allowing immobilization of ribosomal RCs bound to an mRNA with a 3′-biotinylated DNA oligonucleotide pre-annealed to its 5′ end. smFRET data was collected with a wide-field, prism-based total internal reflection fluorescence microscope utilizing a 150 mW diode-pumped 532 nm laser (CrystaLaser) operating at 24 mW for Cy3 excitation, a 25 mW diode-pumped 643 nm laser (CrystaLaser) operating at 19 mW for direct Cy5 excitation, a Dual-View multi-channel imaging system (MAG Biosystems) for separation of Cy3 and Cy5 fluorescence emissions, and a back-thinned charge-coupled device camera (Cascade II, Princeton Instruments) with 2-pixel binning and 50 ms exposure time for detection. Single ribosomal RCs were identified by characteristic single-fluorophore fluorescence intensities as well as single-step fluorophore photobleaching.
Raw intensity data was analyzed with the Metamorph software suite (Molecular Devices). […] For L1-tRNA smFRET experiments with RC2, excited Cy5 was directly with the 643 nm laser in frame one, followed by excitation with the 532 nm laser in order to generate FRET. […] Acquired trajectories composed of a pair of Cy3 and Cy5 intensity versus time trajectories from single ribosomes, were then visually inspected. […] For all RRF and RF3(GDPNP) datasets, an automated selection algorithm was first utilized before visual inspection of the trajectories. This algorithm averages each trajectory over three data points, differentiates intensity with respect to time, and calculates the correlation coefficient for each Cy3/Cy5 pair. Trajectories with a negative correlation coefficient (anti-correlated) were kept for further analysis. Finally, all trajectories were required to last at least 0.5 seconds (i.e. 10 frames) before photobleaching of either fluorophore.
Cy3 and Cy5 fluorescence intensities were baseline corrected in each trajectory by generating one-dimensional Cy3 and Cy5 fluorescence intensity histograms from trajectories within each dataset, determining the intensity value of the most populated bin (which represents background noise intensity after fluorophore photobleaching), and then subtracting this value from all Cy3 and Cy5 intensity data points within every trajectory. Due to the imperfect performance of emission filters, the Cy3 signal bleed-through into the Cy5 channel was experimentally determined to be ˜9%. The Cy5 intensity of each trajectory was corrected using this bleed-through coefficient. smFRET values for each Cy3/Cy5 data point were calculated using ICy5/(ICy3+ICy5), where ICy3 and ICy5 are the intensities of Cy3 and Cy5, respectively.
The rates of GS1→GS2 (kGS1→GS2) and G52→GS1 (kGS2→GS1) transitions for each dataset were determined as follows. […]

RF1-bound RCs = assay: RF3 activity assay (RF3-catalyzed RF1 recycling, multiple-turnover peptide release); format: biochemical, Escherichia coli; conditions: limiting RF1; GDP, GTP or GDPNP; 10 minutes
Protocol: RF3 activity was tested by following the extent of peptide release in cases where RF1 was limiting and RF3 was required to actively recycle RF1, thereby enabling multiple turnover (Zavialov et al. 2001). Reactions were performed as described, with two exceptions: when present, GDP, GTP, or GDPNP was added to the RF1/RF3 mix during the 1 minute pre-incubation, and upon adding the RF1/RF3/nucleotide mix to RCs, reactions were incubated for 10 minutes.

[3] = target: GS1 conformation of the PoTC (RC2Pmn); assay: RRF titration, binding isotherm fit of GS2/GS1 peak area ratio; parameters: species or system Escherichia coli
Excerpt: (§2) To more quantitatively probe the subtle effect of RRF on the GS1⇄GS2 equilibrium, one-dimensional smFRET histograms of the entire population of trajectories were plotted as a function of RRF concentration (FIG. 24). The areas under the peaks centered at 0.16 and 0.76 FRET report the equilibrium populations of GS1 and GS2, respectively. […] Assuming that RRF can bind to both GS1 and GS2, a plot of the GS2/GS1 peak area ratio (Keq) vs. RRF concentration can be fit by the following binding isotherm in order to determine the equilibrium dissociation constants for RRF binding to GS1 (Kd,GS1) and GS2 (Kd,GS2) (Sarkar et al. 2007):
(§3) [formula] where C is the GS2/GS1 peak area ratio in the absence of RRF.

[4] = target: GS2 conformation of the PoTC (RC2Pmn); assay: as above; parameters: species or system Escherichia coli
Excerpt: as §2, §3

vacant ribosomes = conditions: in the absence of mRNA or tRNAs; read-out: Kd of RRF binding to vacant ribosomes; cited from earlier work
[5] = system: RC1 (release complex, fMet-Phe-(Cy3)tRNAPhe in the P site, stop codon at the A site); assay: RF1-tRNA smFRET between P-site (Cy3)tRNAPhe and (Cy5)RF1 bound at the A site; format: binding, Escherichia coli; conditions: UAA-U stop codon, in the presence of paromomycin (100 μM per FIG. 11)
Excerpt: RCs assembled on a biotinylated mRNA were immobilized on the surface of a streptavidin-derivatized quartz flow cell and visualized with single-molecule resolution using a total internal reflection fluorescence microscope. RC surface immobilization strategy and lab-built total internal reflection fluorescence (TIRF) microscope are described in FIG. 10. […]
as §1, with “Single ribosomal RCs were identified by characteristic single-fluorophore fluorescence intensities as well as single-step fluorophore photobleaching.” left out
Raw intensity data was analyzed with the Metamorph software suite (Molecular Devices). […]

[6] = RC2 pre-treated with puromycin (RC2Pmn), no factors, corrected rate
[7] = RC2Pmn in the presence of 1 μM factor
[8] = RC2RF1 in the presence of 1 μM RF1, RF3(GDP) and 1 mM GTP
[9] = RC2RF1 in the presence of 1 μM RF1 and 1 μM RF3 form, no GTP
[10] = RC2Pmn, 0-1.5 μM RRF (near Kd,GS2)

Compound: NC[C@@H]1O[C@H](O[C@H]2[C@@H](O)[C@H](O[C@@H]3[C@@H](O)[C@H](N)C[C@H](N)[C@H]3O[C@H]3O[C@H](CO)[C@@H](O)[C@H](O)[C@H]3N)O[C@@H]2CO)[C@H](N)[C@@H](O)[C@@H]1O [paromomycin]
- inhibition of polypeptide release at a stop codon [1]: very strongly inhibits polypeptide release at a stop codon

Compound: COc1ccc(C[C@H](N)C(=O)N[C@H]2[C@@H](O)[C@H](n3cnc4c(N(C)C)ncnc43)O[C@@H]2CO)cc1 [puromycin, reference compound]
- trajectories fluctuating between 0.16 and 0.76 FRET ([2]; RC2 pre-treated with puromycin (RC2Pmn), no factors): ~63%
- kGS1→GS2 [2, 6]: 0.52 ± 0.03 s⁻¹
- kGS2→GS1 [2, 6]: 1.36 ± 0.03 s⁻¹

Compound: RF1: Escherichia coli class 1 release factor 1, purified, co-expressed with PrmC methyltransferase
- trajectories fluctuating between 0.16 and 0.76 FRET [2, 7]: 9%
- trajectories stably centered at / sampling only 0.16 FRET (GS1) [2, 7]: 85%
- trajectories stably centered at / sampling only 0.76 FRET (GS2) [2, 7]: 6%
- trajectories fluctuating between 0.16 and 0.76 FRET ([2]; RC2 in the presence of 1 μM factor): 2%
- trajectories stably centered at 0.16 FRET (GS1) ([2]; RC2 in the presence of 1 μM factor (87% without RF1)): 98%

Compound: RF3(GDP): RF3 in the GDP form
- kGS2→GS1 relative to RC2Pmn in the absence of RF1, RF3 and guanine nucleotide ([2]; RC2RF1+RF3(GDP)+GTP versus 1.36±0.03 s^−1): ~3 fold
- kGS2→GS1 ([2]; RC2RF1+RF3(GDP)+GTP, 1 μM RF1, 10 μM GDP and 1 mM GTP, corrected rate, lower limit): ≥ 3.7 ± 0.6 s⁻¹
- trajectories exhibiting fluctuations between GS1 and GS2 [2, 8]: 42%
- trajectories stably centered at 0.16 FRET (GS1) [2, 8]: 58%
- trajectories fluctuating between 0.16 and 0.76 FRET [2, 9]: 2%
- trajectories stably centered at 0.16 FRET (GS1) [2, 9]: 98%

Compound: RF3(GDPNP): RF3 with GDPNP, a non-hydrolyzable GTP analog
- trajectories fluctuating between 0.16 and 0.76 FRET [2, 7]: 22%
- trajectories stably centered at / sampling only 0.16 FRET (GS1) [2, 7]: 5%
- trajectories stably centered at / sampling only 0.76 FRET (GS2) [2, 7]: 73%

Compound: RF3: Escherichia coli class II release factor, a GTPase
- nucleotide dependence of RF3-catalyzed RF1 recycling (RF1-bound RCs): exhibits the proper nucleotide dependence in recycling RF1

Compound: RRF: Escherichia coli ribosome recycling factor
- kGS1→GS2 relative to free RC2Pmn ([2]; 50 μM RRF versus 0.52±0.03 s^−1): 1.6 fold
- trajectories fluctuating between 0.16 and 0.76 FRET [2, 7]: 70%
- trajectories stably centered at / sampling only 0.16 FRET (GS1) [2, 7]: 7%
- trajectories stably centered at / sampling only 0.76 FRET (GS2) [2, 7]: 23%
- kGS1→GS2 as a function of RRF concentration [2, 10]: remain unchanged
- kGS2→GS1 as a function of RRF concentration [2, 10]: decreases linearly
- kGS1→GS2 ([2]; RC2Pmn, 50 μM RRF): 0.83 ± 0.06 s⁻¹
- Kd [3]: 12000 ± 2000 nM
- Kd ([4]; RC2Pmn + RRF titration): 900 ± 300 nM
- binding to GS2 over GS1 ([4]; from Kd,GS2 and Kd,GS1): greater than an order of magnitude tighter binding to GS2 over GS1
- Kd (vacant ribosomes): 200 to 600 nM

Compound: S192C: single-cysteine S192C RF1 (PVT domain) labeled with Cy5
- lifetime of the FRET state (dwell time analysis) [5]: < 0.38 ± 0.02 s

Compound: nucleotide-free RF3: RF3 without guanine nucleotide
- trajectories fluctuating between 0.16 and 0.76 FRET [2, 9]: 1%
- trajectories stably centered at 0.16 FRET (GS1) [2, 9]: 99%
